Assay results taken from US12247032B2, “Substituted pyrazolo[1,5-a]pyrimidines as inhibitors of JAK kinases” (Genentech, Inc., priority 2019, dated 2025).
Read-outs that look alike come from different tables or passages of the source.

Assays:
[1] = test system: JAK1 (IL-13-stimulated STAT6 phosphorylation in BEAS-2B cells); experiment: P-STAT6 BEAS-2B+IL-13 cell assay; format: cell-based, human; settings: 1 hour compound, IL-13 15 minutes, IC50 by four-parameter fit, read-out: Cellular JAK1 PSTAT6 BEAS2B + IL13
Method in brief: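 BEAS-2B human bronchial epithelial cells preincubated 1 h at 37 °C with compound, then stimulated with human recombinant IL-13 for 15 min. Phospho-STAT6 (Tyr641) in lysates measured by MSD electrochemiluminescence immunoassay; IC50 from a four-parameter logistic fit of percent of control.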

[2] = biological target: T1, recombinant human JAK1 kinase domain protein (Residues 854-1154) (Homo sapiens, UniProt P23458); experiment: JAK1 biochemical assay (microfluidic mobility shift, peptide phosphorylation); settings: 25 μM ATP, 1 nM total JAK1; Ki calculated from Ki app (tight-binding, competitive); read-out: Biochem JAK1 Ki
T1 construct: human JAK1 kinase domain protein (Residues 854-1154); purchased Proteros Biostructures GmbH (Martinsried, Germany); host or cells: insect cells
T1 sequence (P23458 854-1154): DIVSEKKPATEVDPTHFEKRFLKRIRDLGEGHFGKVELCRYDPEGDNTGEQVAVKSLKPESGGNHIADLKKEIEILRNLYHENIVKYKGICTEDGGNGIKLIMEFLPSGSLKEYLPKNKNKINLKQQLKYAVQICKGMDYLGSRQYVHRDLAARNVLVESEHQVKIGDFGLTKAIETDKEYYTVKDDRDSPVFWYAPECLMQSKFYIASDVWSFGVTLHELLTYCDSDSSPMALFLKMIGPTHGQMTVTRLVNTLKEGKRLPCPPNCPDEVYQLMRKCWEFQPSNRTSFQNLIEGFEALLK
Method in brief: (§1)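 Insect-cell-expressed human JAK1 (1 nM, residues 854-1154) or JAK2 (0.2 nM, residues 812-1132) phosphorylating 1.5 μM 5-FAM peptide Y-1B with 25 μM ATP, pH 7.2 HEPES, 30 min at 22-23 °C; twelve concentrations up to 1000 nM in duplicate. Mobility-shift % conversion fitted to tight-binding quadratic for Ki^app.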

[3] = biological target: T2, Recombinant human JAK2 kinase domain protein (Residues 812-1132) (Homo sapiens, UniProt O60674); experiment: JAK2 biochemical assay (microfluidic mobility shift, peptide phosphorylation); settings: 25 μM ATP, 0.2 nM total JAK2; Ki calculated from Ki app (tight-binding, competitive); read-out: Biochem JAK2 Ki
T2 construct: human JAK2 kinase domain protein (Residues 812-1132); made in house; host or cells: insect cells
T2 sequence (O60674 812-1132): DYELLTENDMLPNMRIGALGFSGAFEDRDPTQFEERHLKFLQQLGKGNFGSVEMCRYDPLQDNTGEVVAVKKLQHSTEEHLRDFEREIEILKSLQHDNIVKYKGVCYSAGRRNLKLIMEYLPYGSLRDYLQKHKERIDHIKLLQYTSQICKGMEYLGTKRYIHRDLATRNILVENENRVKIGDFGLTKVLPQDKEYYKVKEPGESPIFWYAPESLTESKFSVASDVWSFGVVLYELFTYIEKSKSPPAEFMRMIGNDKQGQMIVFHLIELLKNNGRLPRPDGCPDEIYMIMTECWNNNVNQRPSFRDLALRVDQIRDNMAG
Method in brief: as §1

Row | SMILES | IC50 [1] | Ki [2] | Ki [3] | IC50 ([1]; Homo sapiens, BEAS-2B, 1 h)
1 | CN1CCC[C@H]1CN1CC(n2nnc(Cn3cc(NC(=O)c4cnn5cccnc45)c(-c4cc(OC(F)F)ccc4OC(F)F)n3)n2)C1 (racemic) [Example 52, N-[3-[2,5-bis(difluoromethoxy)phenyl]-1-[[2-[1-[[rac-(2R)-1-methylpyrrolidin-2-yl]methyl]azetidin-3-yl]tetrazol-5-yl]methyl]pyrazol-4-yl]pyrazolo[1,5-a]pyrimidine-3-carboxamide] | 19 nM | 0.38 nM | 0.39 nM | –
2 | CN(C)CCn1nnc(Cn2cc(NC(=O)c3cnn4cccnc34)c(-c3cc4c(cc3OC(F)F)NCCO4)n2)n1 [Example 43, N-[3-[6-(difluoromethoxy)-3,4-dihydro-2H-1,4-benzoxazin-7-yl]-1[[2-[2-(dimethylamino)ethyl]tetrazol-5-yl]methyl]pyrazol-4-yl]pyrazolo[1,5-a]pyrimidine-3-carboxamide] | – | 0.86 nM | 0.34 nM | 36 nM
3 | CSc1ccc(OC(F)F)c(-c2nn(Cc3nnn(C4CN(CCN(C)C)C4)n3)cc2NC(=O)c2cnn3cccnc23)c1 [Example 47, N-[3-[2-(difluoromethoxy)-5-methylsulfanyl-phenyl]-1-[[2-[1-[2-(dimethylamino)ethyl]azetidin-3-yl]tetrazol-5-yl]methyl]pyrazol-4-yl]pyrazolo[1,5-a]pyrimidine-3-carboxamide] | – | 0.46 nM | 0.32 nM | 16 nM
